Measurements published in ChEMBL document CHEMBL1201862, “PubChem BioAssay data set” (2004).
Active and inactive are the calls of the source.

Legend:
[1] = HEp-2 cell cytotoxicity, dose response, cytotoxicity control for RSV inhibitor project, HTS (AID 2410); type: functional; settings: human respiratory syncytial virus
[2] = biological target: T1, Short transient receptor potential channel 4 (Mus musculus, UniProt Q9QUQ5); test: mouse TRPC4 channel inhibitors, dose response, cell-based, HEK293 TRPC4/mu-opioid, Fluo-4 calcium (AID 434942); type: functional;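 further: potency of inhibitors blocking the TRPC4 calcium response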
T1 sequence (Q9QUQ5 whole entry): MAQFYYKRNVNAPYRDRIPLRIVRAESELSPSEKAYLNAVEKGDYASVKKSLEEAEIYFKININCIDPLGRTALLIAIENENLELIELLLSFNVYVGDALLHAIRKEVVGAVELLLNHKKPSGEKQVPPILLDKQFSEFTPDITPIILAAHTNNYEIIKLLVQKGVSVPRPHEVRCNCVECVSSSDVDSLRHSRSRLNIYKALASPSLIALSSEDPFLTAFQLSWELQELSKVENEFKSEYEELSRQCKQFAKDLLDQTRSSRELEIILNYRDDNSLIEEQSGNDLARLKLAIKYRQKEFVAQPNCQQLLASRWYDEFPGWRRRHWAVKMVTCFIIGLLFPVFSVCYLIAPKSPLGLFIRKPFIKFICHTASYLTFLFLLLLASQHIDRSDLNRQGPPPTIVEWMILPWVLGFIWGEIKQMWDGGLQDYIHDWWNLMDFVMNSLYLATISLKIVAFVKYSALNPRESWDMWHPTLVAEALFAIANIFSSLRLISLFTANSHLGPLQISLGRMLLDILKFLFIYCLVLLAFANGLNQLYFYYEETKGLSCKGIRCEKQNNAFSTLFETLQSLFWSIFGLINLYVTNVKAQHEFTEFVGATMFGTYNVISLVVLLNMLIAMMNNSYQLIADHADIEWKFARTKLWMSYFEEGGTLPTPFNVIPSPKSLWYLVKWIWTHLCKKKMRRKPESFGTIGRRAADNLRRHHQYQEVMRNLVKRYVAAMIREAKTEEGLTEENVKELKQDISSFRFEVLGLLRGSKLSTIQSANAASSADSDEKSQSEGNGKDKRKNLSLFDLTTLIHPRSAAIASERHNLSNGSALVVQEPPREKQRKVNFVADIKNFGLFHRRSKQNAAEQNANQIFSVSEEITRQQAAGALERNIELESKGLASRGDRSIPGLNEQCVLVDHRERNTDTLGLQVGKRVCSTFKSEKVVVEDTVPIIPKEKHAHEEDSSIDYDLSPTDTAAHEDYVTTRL

[3] = tested on: Streptococcus sp. 'group A'; test: growth inhibition of control SK(-) GAS strain, dose response, counter-screen for streptokinase expression inhibitor project, luminescence, kanamycin, BacTiterGlo, confirmation (AID 1900); type: functional, organism-based
Streptokinase A = biological target: T2, Streptokinase A (Streptococcus pyogenes serotype M1, UniProt P10520); test: S. pyogenes streptokinase expression inhibitors, potency, dose response, plasminogen activation absorbance, OD405 (AID 1914); type: functional, Streptococcus pyogenes M1 GAS;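 further: secreted streptokinase activity via plasminogen activation per viability signal from cell pellet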
T2 sequence (P10520 whole entry): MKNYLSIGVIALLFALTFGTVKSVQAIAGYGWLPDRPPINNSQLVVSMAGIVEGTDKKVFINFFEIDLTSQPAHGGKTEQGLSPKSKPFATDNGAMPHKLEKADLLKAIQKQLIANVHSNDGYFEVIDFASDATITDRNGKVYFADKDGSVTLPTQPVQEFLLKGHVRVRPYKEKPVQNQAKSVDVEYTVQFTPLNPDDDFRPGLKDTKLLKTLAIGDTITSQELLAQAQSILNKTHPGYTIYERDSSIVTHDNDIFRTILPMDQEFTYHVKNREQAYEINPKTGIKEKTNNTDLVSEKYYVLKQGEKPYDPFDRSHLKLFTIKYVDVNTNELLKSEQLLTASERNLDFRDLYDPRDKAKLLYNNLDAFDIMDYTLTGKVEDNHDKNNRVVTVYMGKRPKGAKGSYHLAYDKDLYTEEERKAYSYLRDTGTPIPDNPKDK

Streptococcus = test: Group A Streptococcus viability loss, dose response, counter-screen for streptokinase expression inhibitor project, luminescence, BacTiterGlo (AID 1915); type: functional, organism-based;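 further: potency for reduction of bacterial viability or growth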
[4] = biological target: T3, DNA repair protein RAD52 homolog (Homo sapiens, UniProt P43351); type: functional, biochemical
T3 sequence (P43351 whole entry): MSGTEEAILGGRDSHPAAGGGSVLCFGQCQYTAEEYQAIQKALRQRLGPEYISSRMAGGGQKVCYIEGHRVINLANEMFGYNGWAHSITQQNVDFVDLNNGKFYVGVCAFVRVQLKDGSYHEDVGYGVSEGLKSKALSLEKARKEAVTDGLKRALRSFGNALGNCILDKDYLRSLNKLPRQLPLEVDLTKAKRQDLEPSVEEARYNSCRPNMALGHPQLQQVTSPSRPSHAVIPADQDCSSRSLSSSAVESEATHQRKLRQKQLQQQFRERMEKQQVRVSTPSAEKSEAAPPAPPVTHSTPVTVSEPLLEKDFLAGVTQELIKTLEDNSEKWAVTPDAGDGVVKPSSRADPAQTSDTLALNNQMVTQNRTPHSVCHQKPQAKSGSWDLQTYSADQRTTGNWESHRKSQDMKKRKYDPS

[5] = biological target: T4, Microphthalmia-associated transcription factor (Homo sapiens, UniProt O75030); test: TRPM1 promoter luciferase signal decrease, dose response, MITF inhibitor project, cell-based, SK-MEL-5, cherry-picked, set 3 (AID 493073); type: functional
T4 sequence (O75030 whole entry): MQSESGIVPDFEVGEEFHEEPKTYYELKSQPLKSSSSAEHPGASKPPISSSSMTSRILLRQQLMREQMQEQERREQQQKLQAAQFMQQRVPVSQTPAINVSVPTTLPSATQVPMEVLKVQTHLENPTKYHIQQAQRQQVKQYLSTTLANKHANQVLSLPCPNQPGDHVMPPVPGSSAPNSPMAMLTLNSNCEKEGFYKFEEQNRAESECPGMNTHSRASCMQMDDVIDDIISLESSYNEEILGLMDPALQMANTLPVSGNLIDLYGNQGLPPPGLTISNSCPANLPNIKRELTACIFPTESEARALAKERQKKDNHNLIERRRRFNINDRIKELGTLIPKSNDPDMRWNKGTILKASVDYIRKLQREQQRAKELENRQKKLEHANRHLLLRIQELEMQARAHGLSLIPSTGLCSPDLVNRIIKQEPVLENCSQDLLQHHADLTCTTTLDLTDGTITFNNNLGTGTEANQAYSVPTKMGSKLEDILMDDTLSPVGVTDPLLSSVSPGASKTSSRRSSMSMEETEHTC

[6] = biological target: Induced myeloid leukemia cell differentiation protein Mcl-1 (Homo sapiens, UniProt Q07820); type: functional
Induced myeloid leukemia cell differentiation protein Mcl-1, sequence (Q07820 whole entry): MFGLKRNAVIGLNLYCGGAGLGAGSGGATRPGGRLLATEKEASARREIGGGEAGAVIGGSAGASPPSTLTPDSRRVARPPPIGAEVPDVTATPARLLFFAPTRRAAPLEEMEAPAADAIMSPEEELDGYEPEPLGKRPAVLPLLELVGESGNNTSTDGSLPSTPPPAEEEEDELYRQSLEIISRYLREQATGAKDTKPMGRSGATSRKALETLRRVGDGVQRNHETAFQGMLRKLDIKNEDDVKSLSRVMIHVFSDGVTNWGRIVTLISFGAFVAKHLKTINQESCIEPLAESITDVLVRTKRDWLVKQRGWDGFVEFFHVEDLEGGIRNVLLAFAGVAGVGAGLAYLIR

[7] = biological target: Voltage-dependent T-type calcium channel subunit alpha-1H (Homo sapiens, UniProt O95180); type: functional;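 further: channel activity triggered by adding a high calcium stimulation buffer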
Voltage-dependent T-type calcium channel subunit alpha-1H, sequence (O95180 whole entry): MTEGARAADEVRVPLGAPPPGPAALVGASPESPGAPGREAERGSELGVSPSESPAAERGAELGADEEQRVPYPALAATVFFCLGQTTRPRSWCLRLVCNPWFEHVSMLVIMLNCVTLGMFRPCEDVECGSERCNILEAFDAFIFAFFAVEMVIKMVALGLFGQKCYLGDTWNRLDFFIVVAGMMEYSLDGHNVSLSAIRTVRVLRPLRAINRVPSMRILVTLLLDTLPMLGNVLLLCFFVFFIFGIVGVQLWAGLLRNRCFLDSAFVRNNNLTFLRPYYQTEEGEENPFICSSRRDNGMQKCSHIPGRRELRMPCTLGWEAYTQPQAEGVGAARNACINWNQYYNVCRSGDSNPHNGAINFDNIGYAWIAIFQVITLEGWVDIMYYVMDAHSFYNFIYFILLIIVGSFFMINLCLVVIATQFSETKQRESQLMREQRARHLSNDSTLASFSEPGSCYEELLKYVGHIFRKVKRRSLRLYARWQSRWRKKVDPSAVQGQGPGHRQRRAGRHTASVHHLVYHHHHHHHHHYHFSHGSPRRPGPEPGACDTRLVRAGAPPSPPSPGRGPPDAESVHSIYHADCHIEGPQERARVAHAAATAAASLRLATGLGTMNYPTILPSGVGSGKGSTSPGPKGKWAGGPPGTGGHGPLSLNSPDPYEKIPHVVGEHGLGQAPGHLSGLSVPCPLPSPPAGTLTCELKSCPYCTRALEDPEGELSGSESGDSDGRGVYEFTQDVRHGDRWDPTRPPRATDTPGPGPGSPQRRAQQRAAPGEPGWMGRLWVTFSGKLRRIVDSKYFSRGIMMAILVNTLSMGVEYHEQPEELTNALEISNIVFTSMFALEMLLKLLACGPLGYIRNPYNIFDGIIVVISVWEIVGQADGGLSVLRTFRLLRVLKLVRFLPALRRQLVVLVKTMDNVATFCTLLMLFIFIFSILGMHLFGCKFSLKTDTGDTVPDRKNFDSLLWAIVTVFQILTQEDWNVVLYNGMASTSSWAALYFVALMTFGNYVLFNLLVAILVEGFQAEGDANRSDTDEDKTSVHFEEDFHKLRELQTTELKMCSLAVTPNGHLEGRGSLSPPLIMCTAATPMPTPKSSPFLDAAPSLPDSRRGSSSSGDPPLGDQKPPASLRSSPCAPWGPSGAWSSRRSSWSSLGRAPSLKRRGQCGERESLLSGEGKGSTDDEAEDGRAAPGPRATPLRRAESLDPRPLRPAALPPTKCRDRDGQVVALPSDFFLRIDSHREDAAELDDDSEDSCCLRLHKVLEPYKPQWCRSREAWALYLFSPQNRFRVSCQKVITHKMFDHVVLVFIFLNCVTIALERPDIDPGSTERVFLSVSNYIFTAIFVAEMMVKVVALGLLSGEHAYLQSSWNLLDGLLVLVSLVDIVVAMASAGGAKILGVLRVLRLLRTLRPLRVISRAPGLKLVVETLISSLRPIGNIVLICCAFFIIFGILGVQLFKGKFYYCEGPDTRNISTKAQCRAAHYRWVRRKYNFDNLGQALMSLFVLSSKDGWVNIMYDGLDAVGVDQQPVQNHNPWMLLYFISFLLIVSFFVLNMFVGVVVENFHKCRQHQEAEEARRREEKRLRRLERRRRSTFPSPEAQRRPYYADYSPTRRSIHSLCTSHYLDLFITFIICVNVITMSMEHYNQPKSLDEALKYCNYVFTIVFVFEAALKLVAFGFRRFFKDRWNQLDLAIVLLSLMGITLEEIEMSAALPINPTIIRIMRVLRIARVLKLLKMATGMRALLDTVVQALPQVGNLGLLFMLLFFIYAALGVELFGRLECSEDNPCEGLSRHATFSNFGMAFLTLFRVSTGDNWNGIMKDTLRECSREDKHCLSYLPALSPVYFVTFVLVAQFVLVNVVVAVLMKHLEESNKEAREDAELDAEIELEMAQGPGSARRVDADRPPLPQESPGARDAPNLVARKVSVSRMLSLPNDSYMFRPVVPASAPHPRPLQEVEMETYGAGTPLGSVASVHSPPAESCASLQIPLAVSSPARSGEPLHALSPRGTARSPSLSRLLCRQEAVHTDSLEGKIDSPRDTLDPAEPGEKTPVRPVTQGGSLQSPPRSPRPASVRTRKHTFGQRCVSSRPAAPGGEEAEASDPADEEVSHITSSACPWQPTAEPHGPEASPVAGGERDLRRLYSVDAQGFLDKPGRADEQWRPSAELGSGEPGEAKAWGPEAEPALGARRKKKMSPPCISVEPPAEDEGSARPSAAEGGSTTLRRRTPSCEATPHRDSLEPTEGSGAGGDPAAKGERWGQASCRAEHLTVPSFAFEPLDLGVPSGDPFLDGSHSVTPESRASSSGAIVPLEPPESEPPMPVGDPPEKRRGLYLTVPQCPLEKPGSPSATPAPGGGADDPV

[8] = biological target: T5, Corticotropin-releasing factor receptor 2/Corticotropin-releasing factor-binding protein (Homo sapiens, UniProt P24387+Q13324); test: Dose Response confirmation of uHTS hits for small molecule antagonists of the CRF-binding protein and CRF-R2 receptor complex.; type: functional; settings: read-out: IC50_Mean
T5 sequence (Q13324 whole entry): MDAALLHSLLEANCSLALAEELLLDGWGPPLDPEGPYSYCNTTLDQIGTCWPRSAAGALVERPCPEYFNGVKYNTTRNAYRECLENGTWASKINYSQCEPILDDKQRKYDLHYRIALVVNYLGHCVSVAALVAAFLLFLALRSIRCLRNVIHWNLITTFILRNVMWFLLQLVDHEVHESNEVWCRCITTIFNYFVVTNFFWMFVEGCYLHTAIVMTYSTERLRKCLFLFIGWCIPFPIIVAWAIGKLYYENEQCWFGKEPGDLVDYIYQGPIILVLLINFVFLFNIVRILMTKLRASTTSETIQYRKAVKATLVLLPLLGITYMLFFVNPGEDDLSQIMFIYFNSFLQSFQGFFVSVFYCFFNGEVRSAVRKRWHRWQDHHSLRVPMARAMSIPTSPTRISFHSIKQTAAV
T5 sequence (P24387 whole entry): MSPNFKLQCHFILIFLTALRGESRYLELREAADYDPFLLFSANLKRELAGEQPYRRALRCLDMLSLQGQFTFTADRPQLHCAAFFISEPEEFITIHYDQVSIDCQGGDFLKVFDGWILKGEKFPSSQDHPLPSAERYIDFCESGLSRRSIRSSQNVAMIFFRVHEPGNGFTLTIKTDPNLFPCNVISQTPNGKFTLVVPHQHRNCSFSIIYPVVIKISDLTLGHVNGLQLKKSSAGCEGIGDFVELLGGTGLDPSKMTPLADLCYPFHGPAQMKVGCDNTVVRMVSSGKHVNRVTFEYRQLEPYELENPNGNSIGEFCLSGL

[9] = biological target: T5, Corticotropin-releasing factor receptor 2/Corticotropin-releasing factor-binding protein; test: activators of CRF receptor 2 with binding protein – uHTS hits, confirmation (AID 602473); type: functional; settings: read-out: EC50_Mean
Fatty acid synthase [10] = biological target: T6, Fatty acid synthase (Homo sapiens, UniProt P49327); test: FAS thioesterase domain inhibitors, dose response, biochemical, endpoint fluorescence intensity, uHTS hits (AID 624327); type: functional;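 further: fluorescence from hydrolysis of an O-methyl fluorescein acyl ester substrate by the enzyme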
Fatty acid synthase [11] = biological target: T6, Fatty acid synthase; test: FAS thioesterase domain inhibitors, dose response, biochemical, kinetic fluorescence intensity (AID 624326); type: functional;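 further: rate of fluorescence rise from hydrolysis of a fluorogenic O-methyl fluorescein ester substrate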
[12] = biological target: T7, Heat shock factor protein 1 (Mus musculus, UniProt P38532); test: inhibition of MG132-induced HSE-luciferase signal, confirmation, cell-based, NIH3T3, luminescence, dose retest (AID 2382); type: functional;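 further: NIH3T3 fibroblasts with HSF1-driven luciferase reporter stressed by proteasome inhibitor MG132; luminescence from HSF1-driven luciferase expression after 8 hours of MG132 stress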
T7 sequence (P38532 whole entry): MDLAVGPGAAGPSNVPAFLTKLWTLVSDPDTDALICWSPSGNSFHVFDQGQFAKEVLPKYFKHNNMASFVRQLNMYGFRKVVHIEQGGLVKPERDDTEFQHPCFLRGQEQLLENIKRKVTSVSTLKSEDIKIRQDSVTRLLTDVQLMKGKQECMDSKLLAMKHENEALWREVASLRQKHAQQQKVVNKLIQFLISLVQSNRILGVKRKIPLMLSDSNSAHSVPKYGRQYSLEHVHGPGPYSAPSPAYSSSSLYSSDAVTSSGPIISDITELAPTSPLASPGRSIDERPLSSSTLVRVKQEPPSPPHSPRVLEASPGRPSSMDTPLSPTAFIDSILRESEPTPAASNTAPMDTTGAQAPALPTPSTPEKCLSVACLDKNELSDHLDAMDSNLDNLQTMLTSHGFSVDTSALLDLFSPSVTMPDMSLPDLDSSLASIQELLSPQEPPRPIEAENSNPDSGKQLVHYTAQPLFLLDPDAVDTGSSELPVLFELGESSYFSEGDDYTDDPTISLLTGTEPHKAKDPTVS

[13] = Luminescence Cell-Based Dose Confirmation HTS to Identify Activators of 5'UTR Stem-Loop Driven Alpha-Synuclein mRNA Translation in H4 Neuroglioblastoma Cells. [Related pubchem assays: 1829 (Project Summary), 1814 (Primary HTS)]; type: functional
[14] = Luminescence Cell-Based Dose Response HTS to Identify Activators of Luciferase Translation or Activity in H4 […] Cells. [Related pubchem assays: 1829 (Project Summary), 1814 (Primary HTS)]; type: functional
H4 = test: Luminescence Cell-Based Dose Response HTS to Identify Activators of 5'UTR Stem-Loop Driven Prion Protein mRNA Translation in H4 Neuroglioblastoma Cells. [Related pubchem assays: 1829 (Project Summary), 1814 (Primary HTS)]; type: functional; settings: Homo sapiens

## Cc1cc(Nc2ccc(C)c(C)c2)c2ccccc2n1
[1]
  CC50: 26.1 µM (active)
[2]
  EC50: 2.11 µM (active)

## CCCCCCCCCCCCOC(=O)C[N+](C)(C)C
[3]
  EC50: 3.32 µM (active)
Streptokinase A
  EC50: 20.7 µM (active)
Streptococcus
  EC50: 10.6 µM (active)
[2]
  EC50: 2.99 µM (active)
[4]
  AC50: 26.4 µM (active)

## CC(C)n1c(O)c(C2c3cc(Cl)ccc3Oc3[nH]c(=O)n(C(C)C)c(=O)c32)c(=O)[nH]c1=O (stereo not drawn)
[5]
  AC50: 5.39 µM (active)

## CCC(C)(C)n1nnnc1C(c1ccc(O)c(OC)c1)N1CCc2ccccc2C1 (stereo not drawn)
[6]
  IC50: 6.3 µM (active)

## O=C(CSCc1cnn(-c2ccccc2)c1-n1cccc1)NCc1ccc2c(c1)OCO2
[7]
  EC50: 2.98 µM (active)

## Cn1c(=O)c2cc3c(nc2n(C)c1=O)CC(c1ccccc1)CC3=O (stereo not drawn)
[8]
  IC50: > 47.1 µM (inactive)
[9]
  EC50: > 53 µM (inactive)
Fatty acid synthase [10]
  IC50: 10.5 µM (active)
Fatty acid synthase [11]
  IC50: 14.5 µM (active)

## N=c1n(CCO)c2ccccc2n1Cc1ccc(Cl)cc1
[2]
  EC50: 3.35 µM (active)

## S=C(NCc1ccco1)N1CCN(Cc2ccc(Cl)cc2Cl)CC1
[7]
  EC50: 4.2 µM (active)

## Cc1[nH]c2ccc(C(=O)OC(C)C(=O)N(C)c3ccccc3)cc2c1C (stereo not drawn)
[2]
  EC50: 0.749 µM (active)

## Cc1cccc(OCC(=O)Nc2ccccc2N2CCN(C(=O)C(C)C)CC2)c1C
[7]
  EC50: 2.13 µM (active)

## O=C(CSc1nc2ccccc2[nH]1)Nc1ccc(F)c(F)c1
[12]
  EC50: > 195 µM (not active)
[7]
  EC50: 6.59 µM (active)

## COc1ccc(N2CCN(C(=O)CCc3nc(-c4ccc(C)cc4)no3)CC2)cc1
[7]
  EC50: 2.1 µM (active)

## COc1cc(C(=O)N(CCc2ccccc2)C2=CC3CCC(C2)N3C)cc(OC)c1OC (stereo not drawn)
[2]
  EC50: 0.335 µM (active)

## Nc1cc2c(cc1[N+](=O)[O-])OCO2
[6]
  IC50: 5.21 µM (active)

## N#C/C(=C(/O)c1ccc(-c2cccc([N+](=O)[O-])c2)o1)c1nc2ccccc2s1
[13]
  EC50: > 120 µM (not active)
[14]
  EC50: 9.39 µM (active)
H4
  EC50: > 120 µM (not active)
[6]
  IC50: 5.38 µM (active)

## CCn1nccc1C(=O)Nc1cc(Cl)cc(Cl)c1
[7]
  EC50: 7.54 µM (active)
